Test results published in US6369047B2, “Androgenic steroid compounds and a method of making and using the same” (Research Triangle Institute, priority 1997, dated 2002).

Legend:
Male Rats = assay: Long Term Androgenic Activity in Male Rats; format: in vivo, rat
[1] = tested on: immature castrated male rats; assay: Androgenic Activity, subcutaneous administration to immature castrated male rats; format: in vivo, rat; settings: for Androgenic Activity, Seminal Vesicles / Androgenic Activity, Ventral Prostate / Androgenic Activity, Levator Ani: subcutaneous, Testosterone = 100
Description: Androgenic Activity was also evaluated using subcutaneous administration to immature castrated male rats (Testosterone=100).

immature female rats = assay: Estrogenic Activity, subcutaneous administration to immature female rats; format: in vivo, rat; settings: Estradiol = 100
Description: (§1) Additionally, Estrogen RBA was determined by relative binding (Estradiol=100) to estrogen receptor from immature female rat uterus, while Estrogenic Activity was determined by subcutaneous administration to immature female rats (Estradiol=100).

[2] = biological target: T1, androgen receptor from rat ventral prostate (Rattus norvegicus, UniProt P15207); assay: Androgen RBA: relative binding to androgen receptor; settings: Dihydrotestosterone = 100
T1 construct: androgen receptor from rat ventral prostate; from tissue; host or cells: rat ventral prostate
T1 sequence (P15207 1-902): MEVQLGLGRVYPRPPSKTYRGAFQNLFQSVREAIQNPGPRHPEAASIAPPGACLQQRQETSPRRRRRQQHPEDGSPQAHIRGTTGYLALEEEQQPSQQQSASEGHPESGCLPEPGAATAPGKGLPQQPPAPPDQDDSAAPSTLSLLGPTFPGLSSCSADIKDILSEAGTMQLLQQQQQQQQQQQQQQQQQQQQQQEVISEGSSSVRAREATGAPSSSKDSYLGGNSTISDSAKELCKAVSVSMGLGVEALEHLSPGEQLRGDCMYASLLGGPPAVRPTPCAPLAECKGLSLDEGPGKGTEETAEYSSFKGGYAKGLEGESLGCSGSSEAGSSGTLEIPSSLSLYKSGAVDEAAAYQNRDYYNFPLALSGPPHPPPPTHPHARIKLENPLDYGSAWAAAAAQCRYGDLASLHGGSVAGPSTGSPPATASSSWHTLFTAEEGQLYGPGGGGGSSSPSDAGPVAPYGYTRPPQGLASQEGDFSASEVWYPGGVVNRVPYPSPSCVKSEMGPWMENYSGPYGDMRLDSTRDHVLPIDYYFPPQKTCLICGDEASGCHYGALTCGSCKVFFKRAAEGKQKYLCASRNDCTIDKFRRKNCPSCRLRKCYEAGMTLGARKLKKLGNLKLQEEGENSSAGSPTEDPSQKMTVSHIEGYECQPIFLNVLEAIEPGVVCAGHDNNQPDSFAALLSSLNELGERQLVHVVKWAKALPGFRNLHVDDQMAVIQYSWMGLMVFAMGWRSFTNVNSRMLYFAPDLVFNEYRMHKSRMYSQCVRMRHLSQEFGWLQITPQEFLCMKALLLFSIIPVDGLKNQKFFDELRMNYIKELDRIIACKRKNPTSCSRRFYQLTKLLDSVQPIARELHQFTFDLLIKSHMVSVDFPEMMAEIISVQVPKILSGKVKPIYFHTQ

[3] = biological target: T2, estrogen receptor from immature female rat uterus (Rattus norvegicus, UniProt P06211); assay: Estrogen RBA: relative binding to estrogen receptor; settings: Estradiol = 100
T2 construct: estrogen receptor from immature female rat uterus; from tissue; host or cells: immature female rat uterus
T2 sequence (P06211 1-600): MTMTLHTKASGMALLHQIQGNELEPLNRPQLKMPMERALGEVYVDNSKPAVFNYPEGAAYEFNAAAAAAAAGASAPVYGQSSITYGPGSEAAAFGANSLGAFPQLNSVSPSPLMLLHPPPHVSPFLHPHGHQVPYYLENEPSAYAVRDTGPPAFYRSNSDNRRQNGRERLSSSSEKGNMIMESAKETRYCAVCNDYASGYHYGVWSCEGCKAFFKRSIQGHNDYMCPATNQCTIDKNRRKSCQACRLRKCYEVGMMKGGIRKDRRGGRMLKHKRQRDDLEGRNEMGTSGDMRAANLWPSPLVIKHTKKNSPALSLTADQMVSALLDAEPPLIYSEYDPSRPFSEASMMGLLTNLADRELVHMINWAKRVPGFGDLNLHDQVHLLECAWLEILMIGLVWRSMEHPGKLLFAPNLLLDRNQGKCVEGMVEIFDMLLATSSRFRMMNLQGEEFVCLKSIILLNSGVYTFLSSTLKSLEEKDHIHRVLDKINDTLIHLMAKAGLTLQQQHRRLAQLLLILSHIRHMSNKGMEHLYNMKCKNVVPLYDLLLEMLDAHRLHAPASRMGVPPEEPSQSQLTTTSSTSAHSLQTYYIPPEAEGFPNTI
Description: as §1

SMILES	Final Body Weight (% change from control) (Male Rats; 0.6 mg, week 1 after dose) [%]	Seminal Vesicle Weight (% change from control) (Male Rats; 0.6 mg, week 1 after dose) [%]	Ventral Prostate Weight (% change from control) (Male Rats; 0.6 mg, week 1 after dose) [%]	Final Body Weight (% change from control) (Male Rats; 0.6 mg, week 2 after dose) [%]	Seminal Vesicle Weight (% change from control) (Male Rats; 0.6 mg, week 2 after dose) [%]	Ventral Prostate Weight (% change from control) (Male Rats; 0.6 mg, week 2 after dose) [%]	Final Body Weight (% change from control) (Male Rats; 0.6 mg, week 4 after dose) [%]	Seminal Vesicle Weight (% change from control) (Male Rats; 0.6 mg, week 4 after dose) [%]	Ventral Prostate Weight (% change from control) (Male Rats; 0.6 mg, week 4 after dose) [%]	Final Body Weight (% change from control) (Male Rats; 0.6 mg, week 6 after dose) [%]	Seminal Vesicle Weight (% change from control) (Male Rats; 0.6 mg, week 6 after dose) [%]	Ventral Prostate Weight (% change from control) (Male Rats; 0.6 mg, week 6 after dose) [%]	Final Body Weight (% change from control) (Male Rats; 0.6 mg, week 8 after dose) [%]	Seminal Vesicle Weight (% change from control) (Male Rats; 0.6 mg, week 8 after dose) [%]	Ventral Prostate Weight (% change from control) (Male Rats; 0.6 mg, week 8 after dose) [%]	Final Body Weight (% change from control) (Male Rats; 0.6 mg, week 10 after dose) [%]	Seminal Vesicle Weight (% change from control) (Male Rats; 0.6 mg, week 10 after dose) [%]	Ventral Prostate Weight (% change from control) (Male Rats; 0.6 mg, week 10 after dose) [%]	Androgenic Activity, Seminal Vesicles [1]	Androgenic Activity, Ventral Prostate [1]	other results
CCCCCCC(=O)O[C@H]1CC[C@H]2[C@H]3[C@H]([C@@H](C)C[C@]12C)[C@H]1CCC(=O)C=C1C[C@H]3C [RTI 147-029, 7α,11β-dimethyl-17β-heptanoyloxyestr-4-en-3-one]	15	968	628	6	1428	778	1	1222	1145	0	1777	1810	−16	1044	858	1	924	749	–	–	Final Body Weight (% change from control) (Male Rats; 0.3 mg, week 1 after dose): 9%; Seminal Vesicle Weight (% change from control) (Male Rats; 0.3 mg, week 1 after dose): 571%; Ventral Prostate Weight (% change from control) (Male Rats; 0.3 mg, week 1 after dose): 368%; Final Body Weight (% change from control) (Male Rats; 0.3 mg, week 2 after dose): 1%; Seminal Vesicle Weight (% change from control) (Male Rats; 0.3 mg, week 2 after dose): 580%; Ventral Prostate Weight (% change from control) (Male Rats; 0.3 mg, week 2 after dose): 582%; Final Body Weight (% change from control) (Male Rats; 0.3 mg, week 4 after dose): 3%; Seminal Vesicle Weight (% change from control) (Male Rats; 0.3 mg, week 4 after dose): 438%; Ventral Prostate Weight (% change from control) (Male Rats; 0.3 mg, week 4 after dose): 583%; Final Body Weight (% change from control) (Male Rats; 0.3 mg, week 6 after dose): −1%; Seminal Vesicle Weight (% change from control) (Male Rats; 0.3 mg, week 6 after dose): 603%; Ventral Prostate Weight (% change from control) (Male Rats; 0.3 mg, week 6 after dose): 649%; Final Body Weight (% change from control) (Male Rats; 0.3 mg, week 8 after dose): −10%; Seminal Vesicle Weight (% change from control) (Male Rats; 0.3 mg, week 8 after dose): 312%; Ventral Prostate Weight (% change from control) (Male Rats; 0.3 mg, week 8 after dose): 340%; Final Body Weight (% change from control) (Male Rats; 0.3 mg, week 10 after dose): −2%; Seminal Vesicle Weight (% change from control) (Male Rats; 0.3 mg, week 10 after dose): 426%; Ventral Prostate Weight (% change from control) (Male Rats; 0.3 mg, week 10 after dose): 562%; potency and duration of action as compared with testosterone enanthate (Male Rats; in words, refers to Table 2): greater potency and longer duration of action
C[C@@H]1C[C@H]2CC(=O)CC[C@@H]2[C@@H]2[C@@H]1[C@@H]1CC[C@H](O)[C@@]1(C)C[C@@H]2C [RTI 1471-032, 7α,11β-dimethyl-17β-hydroxy-5α-estran-3-one]	–	–	–	–	–	–	–	–	–	–	–	–	–	–	–	–	–	–	377	742	Estrogenic Activity (immature female rats): 0.7
CCCCCCC(=O)O[C@H]1CC[C@H]2[C@@H]3CCC4=CC(=O)CC[C@]4(C)[C@H]3CC[C@]12C [Testosterone enanthate, reference compound]	0	452	409	6	318	339	−7	281	291	0	248	405	6	187	150	0	179	130	–	–	–
C=C1C[C@]2(C)[C@@H](O)CC[C@H]2[C@H]2[C@H]1[C@H]1CCC(=O)C=C1C[C@H]2C [RTI 1471-034, 17β-Hydroxy-7α-methyl-11-methyleneestr-4-en-3-one]	–	–	–	–	–	–	–	–	–	–	–	–	–	–	–	–	–	–	993	1519-2148	Androgen RBA [2]: 176
C[C@@H]1CC2=CC(=O)CC[C@@H]2[C@H]2CC[C@]3(C)[C@@H](O)CC[C@H]3[C@@H]21 [RTI 1176-024, 7α-methyl-19-nortestosterone]	–	–	–	–	–	–	–	–	–	–	–	–	–	–	–	–	–	–	790	609	Androgenic Activity, Levator Ani [1]: 2510
C[C@@H]1CC2=CC(=O)CC[C@@H]2[C@@H]2[C@@H]1[C@@H]1CC[C@H](O)[C@@]1(C)C[C@@H]2C [RTI 1176-012, 7α,11β-dimethyl-17β-hydroxyestr-4-en-3-one]	–	–	–	–	–	–	–	–	–	–	–	–	–	–	–	–	–	–	1540	1480	Androgen RBA [2]: 194; acute androgenic activity as compared with 7α-methyl-19-nortesterone ([1]; in words, refers to Table 1): marked increase in acute androgenic activity; Androgenic Activity, Levator Ani [1]: 3800; Estrogen RBA [3]: 0.6; Estrogenic Activity (immature female rats): 0.8; melting point: 149 to 151 °C
